How the values were obtained:
Rattus norvegicus [1] = experiment: Antihypertensive activity in spontaneously hypertensive rat assessed as maximum fall in mean arterial pressure at 0.312 mg/kg, po; type: functional, Artery
Rattus norvegicus [2] = experiment: Antihypertensive activity in spontaneously hypertensive rat assessed as duration of effect at 5 mg/kg, po; type: functional
Canis familiaris [3] = experiment: Peripheral vasodilating activity in anesthetized trachea-cannulated mongrel dog assessed as increase in iliac blood flow at 8 ug administered intraarterially in presence of isoproterenol; type: functional, Canis lupus familiaris, Artery
Canis familiaris [4] = experiment: Peripheral vasodilating activity in anesthetized trachea-cannulated mongrel dog assessed as increase in iliac blood flow at 1600 ug administered intraarterially co-treated with 2000 ug/kg timolol in presence of isoproterenol; type: functional, Canis lupus familiaris, Artery
Rattus norvegicus [5] = experiment: Antihypertensive activity in spontaneously hypertensive rat assessed as duration of effect at 1.25 mg/kg, po; type: functional
Rattus norvegicus [6] = experiment: Antihypertensive activity in spontaneously hypertensive rat assessed as duration of effect at 0.312 mg/kg, po; type: functional
Canis familiaris [7] = experiment: Peripheral vasodilating activity in anesthetized trachea-cannulated mongrel dog assessed as increase in iliac blood flow at 32 ug administered intraarterially in presence of isoproterenol; type: functional, Canis lupus familiaris, Artery
Canis familiaris [8] = experiment: Peripheral vasodilating activity in anesthetized trachea-cannulated mongrel dog assessed as increase in iliac blood flow at 16 ug administered intraarterially co-treated with 2000 ug/kg timolol in presence of isoproterenol; type: functional, Canis lupus familiaris, Artery
Canis familiaris [9] = experiment: Peripheral vasodilating activity in anesthetized trachea-cannulated mongrel dog assessed as increase in iliac blood flow at 1600 ug administered intraarterially in presence of isoproterenol; type: functional, Canis lupus familiaris, Artery
Canis familiaris [10] = experiment: Peripheral vasodilating activity in anesthetized trachea-cannulated mongrel dog assessed as increase in iliac blood flow at 32 ug administered intraarterially co-treated with 2000 ug/kg timolol in presence of isoproterenol; type: functional, Canis lupus familiaris, Artery
Rattus norvegicus [11] = experiment: Antihypertensive activity in spontaneously hypertensive rat assessed as maximum fall in mean arterial pressure at 1.25 mg/kg, po; type: functional, Artery
Rattus norvegicus [12] = experiment: Antihypertensive activity in spontaneously hypertensive rat assessed as maximum fall in mean arterial pressure at 5 mg/kg, po; type: functional, Artery
Canis familiaris [13] = experiment: Peripheral vasodilating activity in anesthetized trachea-cannulated mongrel dog assessed as increase in iliac blood flow at 16 ug administered intraarterially in presence of isoproterenol; type: functional, Canis lupus familiaris, Artery
Canis familiaris [14] = experiment: Peripheral vasodilating activity in anesthetized trachea-cannulated mongrel dog assessed as increase in iliac blood flow at 8 ug administered intraarterially co-treated with 2000 ug/kg timolol in presence of isoproterenol; type: functional, Canis lupus familiaris, Artery
Canis familiaris [15] = experiment: Blockade of isoprolerenol-induced hypotension in iv dosed anesthetized trachea-cannulated mongrel dog assessed as mean arterial pressure; type: functional; details: Canis lupus familiaris, Artery
Canis familiaris [16] = experiment: Blockade of isoprolerenol-induced tachycardia in iv dosed anesthetized trachea-cannulated mongrel dog assessed as heart rate; type: functional; details: Canis lupus familiaris
Canis familiaris [17] = experiment: Peripheral vasodilating activity in anesthetized trachea-cannulated mongrel dog assessed as increase in iliac blood flow at 60 ug administered intraarterially in presence of isoproterenol; type: functional, Canis lupus familiaris, Artery
Rattus norvegicus [18] = experiment: Antihypertensive activity in spontaneously hypertensive rat assessed as maximum fall in mean arterial pressure at 20 mg/kg, ip; type: functional, Artery; details: route intraperitoneal
Rattus norvegicus [19] = experiment: Antihypertensive activity in spontaneously hypertensive rat assessed as maximum fall in mean arterial pressure at 20 mg/kg, po; type: functional, Artery
Rattus norvegicus [20] = experiment: Antihypertensive activity in spontaneously hypertensive rat assessed as duration of effect at 20 mg/kg, po; type: functional
Rattus norvegicus [21] = experiment: Antihypertensive activity in spontaneously hypertensive rat assessed as duration of effect at 20 mg/kg, ip; type: functional; details: route intraperitoneal
Rattus norvegicus [22] = experiment: Antihypertensive activity in spontaneously hypertensive rat assessed as duration of effect at 1 mg/kg, po; type: functional
Rattus norvegicus [23] = experiment: Antihypertensive activity in spontaneously hypertensive rat assessed as duration of effect at 2 mg/kg, po; type: functional
Rattus norvegicus [24] = experiment: Antihypertensive activity in spontaneously hypertensive rat assessed as maximum fall in mean arterial pressure at 1 mg/kg, po; type: functional, Artery
Rattus norvegicus [25] = experiment: Antihypertensive activity in spontaneously hypertensive rat assessed as maximum fall in mean arterial pressure at 2 mg/kg, po; type: functional, Artery
Canis familiaris [26] = experiment: Peripheral vasodilating activity in anesthetized trachea-cannulated mongrel dog assessed as increase in iliac blood flow at 1600 ug administered intraarterially co-treated with 800 ug/kg timolol in presence of isoproterenol; type: functional, Canis lupus familiaris, Artery
Canis familiaris [27] = experiment: Peripheral vasodilating activity in anesthetized trachea-cannulated mongrel dog assessed as increase in iliac blood flow at 800 ug administered intraarterially co-treated with 800 ug/kg timolol in presence of isoproterenol; type: functional, Canis lupus familiaris, Artery
Rattus norvegicus [28] = experiment: Antihypertensive activity in spontaneously hypertensive rat assessed as duration of effect at 8 mg/kg, po; type: functional
Canis familiaris [29] = experiment: Toxicity in renal hypertensive dog assessed as elevation in heart rate at 4 to 16 mg/kg; type: organism-based, Canis lupus familiaris; parameters: dose 4-16 mg/kg; details: in vivo
Rattus norvegicus [30] = experiment: Antihypertensive activity in spontaneously hypertensive rat assessed as maximum fall in mean arterial pressure at 8 mg/kg, po; type: functional, Artery
Canis familiaris [31] = experiment: Peripheral vasodilating activity in anesthetized trachea-cannulated mongrel dog assessed as increase in iliac blood flow at 800 ug administered intraarterially in presence of isoproterenol; type: functional, Canis lupus familiaris, Artery
Canis familiaris [32] = experiment: Peripheral vasodilating activity in anesthetized trachea-cannulated mongrel dog assessed as increase in iliac blood flow at 800 ug administered intraarterially co-treated with 320 ug/kg timolol in presence of isoproterenol; type: functional, Canis lupus familiaris, Artery

SMILES | Time (Rattus norvegicus [2]) | Activity (Canis familiaris [4]) | Time (Rattus norvegicus [5]) | Activity (Canis familiaris [9]) | Activity (Rattus norvegicus [11]) | Activity (Rattus norvegicus [12]) | ED50 (Canis familiaris [15]) | ED50 (Canis familiaris [16]) | Activity (Rattus norvegicus [18]) | Activity (Rattus norvegicus [19]) | Time (Rattus norvegicus [21]) | further results
CC(C)(C)NCC(O)COc1ccc(-c2nc(C(F)(F)F)c[nH]2)cc1 (racemic) | 18 h | 15 mL/min | 18 h | 9 mL/min | 36 mmHg | 49 mmHg | 0.036 mg/kg | 0.009 mg/kg |  |  |  | Activity (Rattus norvegicus [1]): 21 mmHg; Activity (Canis familiaris [3]): 52 mL/min; Time (Rattus norvegicus [6]): 7 h; Activity (Canis familiaris [7]): 63 mL/min; Activity (Canis familiaris [8]): 17 mL/min; Activity (Canis familiaris [10]): 17 mL/min; Activity (Canis familiaris [13]): 58 mL/min; Activity (Canis familiaris [14]): 10 mL/min
CC(C)(C)NC[C@H](O)COc1ccc(-c2nc(C(F)(F)F)c[nH]2)cc1 | >24 h |  | 18 h |  | 40 mmHg | 56 mmHg | 0.038 mg/kg | 0.0076 mg/kg |  |  |  | Activity (Canis familiaris [17]): 5 mL/min; Activity (Rattus norvegicus [1]): 24 mmHg; Time (Rattus norvegicus [6]): 12 h
CC(C)(C)NC[C@H](O)COc1ncccc1-c1ncc(C(F)(F)F)[nH]1 |  | 9 mL/min |  | 4 mL/min |  |  | 0.125 mg/kg | 0.25 mg/kg | 8 mmHg | 6 mmHg |  | 
CC(C)(C)NC[C@@H](O)COc1ccc(-c2ncc(C(F)(F)F)[nH]2)cc1 | 6 h |  | 2 h |  | 16 mmHg | 22 mmHg | > 1 mg/kg | 0.102 mg/kg |  | 49 mmHg |  | Time (Rattus norvegicus [20]): 8 h
CC(C)(C)NC[C@H](O)COc1ccccc1-c1ncc(C(F)(F)F)[nH]1 |  | 33 mL/min |  | 35 mL/min |  |  | 0.1 mg/kg | 0.3 mg/kg | 32 mmHg | 0 mmHg | <7 h | 
NNc1nncc2ccccc12 [HYDRALAZINE] |  |  |  | 66 mL/min |  |  |  |  |  |  |  | Time (Rattus norvegicus [22]): 6 h; Time (Rattus norvegicus [23]): >7 h; Activity (Rattus norvegicus [24]): 30 mmHg; Activity (Rattus norvegicus [25]): 40 mmHg
CC(C)(C)NC[C@H](O)COc1ccc(-c2ncc(C(F)(F)F)[nH]2)cn1 |  |  |  | 103 mL/min |  |  | 0.058 mg/kg | 0.0025 mg/kg | 40 mmHg | 0 mmHg | >7 h | Activity (Canis familiaris [26]): 38 mL/min
CC(C)(C)NC[C@H](O)COc1cccc(-c2ncc(C(F)(F)F)[nH]2)c1 |  |  |  |  |  |  | 0.086 mg/kg | > 1 mg/kg | 40 mmHg | 5 mmHg | >7 h | 
FC(F)(F)c1cnc(-c2cccnc2)[nH]1 |  |  |  |  |  |  |  |  |  |  |  | Time (Rattus norvegicus [22]): 2 h; Activity (Canis familiaris [27]): 76 mL/min; Time (Rattus norvegicus [28]): >6 h; Activity (Canis familiaris [29]): 82 bpm; Activity (Rattus norvegicus [30]): 48 mmHg; Time (Rattus norvegicus [23]): 6 h; Activity (Rattus norvegicus [24]): 21 mmHg; Activity (Rattus norvegicus [25]): 39 mmHg; Activity (Canis familiaris [31]): 93 mL/min; Activity (Canis familiaris [32]): 99 mL/min
